Source: patent publication US20120190059A1, “METHODS FOR OBTAINING HEPATOCYTES, HEPATIC ENDODERM CELLS AND HEPATIC PROGENITOR CELLS BY INDUCED DIFFERENTIATION” (BEIJING HUAYU[…]., LTD., priority 2009, published 2012)

Tested on: cytochrome p450
Assay: PROD detection of cytochrome p450 activity in differentiated hepatocyte-like cells
Settings: phenobarbital induction versus no induction, hepatocyte-like cells differentiated from hepatic progenitor cells

CCC1(c2ccccc2)C(=O)NC(=O)NC1=O [Phenobarbital]
PROD activity of the differentiated cells: could improve the PROD activity
PROD activity of the differentiated cells (listed as phenobarbital): PROD activity was enhanced
